The subject of one data set is gastric mucosal cells. Description: Cytotoxicity of NSAIDs to gastric mucosal cells. Type of data set: cell-based. The note with it: order among the five NSAIDs of the same figure (FIG. 3 or FIG. 4). From the text:
Specifically, the cytotoxicity of 10 clinically used NSAIDs as measured by the decrease in cell viability (i.e., cytotoxicity due to necrosis/apoptosis as measured by the decrease in cell viability) was compared to their membrane toxicity determined by the liposome model.

Data set [1] in a line: Calcein leakage from calcein-encapsulating liposome in the presence of NSAIDs (membrane toxicity). The note with it: 30° C., 10 min, fluorescence at 520 nm; order among the five NSAIDs of the same figure.
Data set [2] in a line: Calcein leakage from liposome in the presence of an NSAID and the gastric mucosa-protecting agent teprenone. The note with it: for calcein leakage from liposome in the presence of NSAID and teprenone: teprenone 0, 10^-7 to 10^-4 M, 30° C., 10 min. How it is done:
Teprenone (product name, Selbex (registered trademark)) was used as the gastric mucosa-protecting agent and was used at concentrations of 0 M (Control), 10^−7 M, 10^−6 M, 10^−5 M and 10^−4 M.
Each NSAID and teprenone at respective concentrations were added to the liposome solution obtained in Example 1. Each solution was incubated at 30° C. for 10 min. Subsequently, the fluorescence at 520 nm was measured for each solution to determine the calcein leakage from liposome (i.e., membrane toxicity).

On to `Cc1ccc(-c2cc(C(F)(F)F)nn2-c2ccc(S(N)(=O)=O)cc2)cc1` [celecoxib], for which the “cytotoxicity to gastric mucosal cells (rank order)” value (“cytotoxicity” for short) in the data set on gastric mucosal cells is given as “celecoxib>mefenamic acid>flufenamic acid>nimesulide>etodolac”.
The same measure, in the same setting: next, `CS(=O)(=O)Nc1ccc([N+](=O)[O-])cc1Oc1ccccc1` [nimesulide]: “celecoxib>mefenamic acid>flufenamic acid>nimesulide>etodolac”.
As to `O=C(O)c1ccccc1Nc1cccc(C(F)(F)F)c1` [flufenamic acid], the “calcein leakage from the liposome (membrane toxicity), rank order” value in data set [1] is given as “decreased in the same order”. In addition, the “cytotoxicity” value in the data set with gastric mucosal cells was “celecoxib>mefenamic acid>flufenamic acid>nimesulide>etodolac”.
With `Cc1cccc(Nc2ccccc2C(=O)O)c1C` [mefenamic acid], the “cytotoxicity” value with gastric mucosal cells is listed as “celecoxib>mefenamic acid>flufenamic acid>nimesulide>etodolac”.
The same measure, in the same setting: to `CCc1cccc2c3c([nH]c12)C(CC)(CC(=O)O)OCC3` (stereo not drawn) [etodolac] belongs “celecoxib>mefenamic acid>flufenamic acid>nimesulide>etodolac”.
Regarding teprenone, the “calcein leakage from liposome in the presence of NSAID and teprenone (repeat experiment)” value in data set [2] (0.05 mM and 0.1 mM celecoxib) was “reduced the calcein leakage from the liposome”; in data set [2] (2 mM and 10 mM diclofenac), “reduced the calcein leakage from the liposome”; in data set [2] (4 mM and 8 mM indomethacin) it was “reduced the calcein leakage from the liposome”; in data set [2] (40 mM and 60 mM ibuprofen), “reduced the calcein leakage from the liposome”. The “calcein leakage from liposome in the presence of NSAID and teprenone” value in data set [2] (0.08 mM celecoxib), in data set [2] (4 mM diclofenac), in data set [2] (6 mM indomethacin) and in data set [2] (20 mM ibuprofen) was “the calcein leakage decreases as the amount of teprenone is increased” each time.
Regarding `CC(C(=O)O)c1cccc(C(=O)c2ccccc2)c1` (stereo not drawn) [ketoprofen], the “calcein leakage from the liposome (membrane toxicity), rank order” value in data set [1] is “decreased in the same order”.
Regarding `CC(C(=O)O)c1ccc(-c2ccccc2)c(F)c1` (stereo not drawn) [flurbiprofen], in the data set on gastric mucosal cells, the “cytotoxicity” value is “indomethacin>diclofenac>flurbiprofen>ibuprofen>ketoprofen”.
Still for that read-out and setting: next, `O=C(O)Cc1ccccc1Nc1c(Cl)cccc1Cl` [diclofenac]: “indomethacin>diclofenac>flurbiprofen>ibuprofen>ketoprofen”; `COc1ccc2c(c1)c(CC(=O)O)c(C)n2C(=O)c1ccc(Cl)cc1` [indomethacin]: “indomethacin>diclofenac>flurbiprofen>ibuprofen>ketoprofen”.

The record behind these values is US20080113014A1, “Method for Screening for Compounds Safe for Gastric Mucosa” (LTT BIO-PHARMA CO., LTD., priority 2004, published 2008).
